According to article PMC11224403, “Des-acyl ghrelin reduces alcohol intake and alcohol-induced reward in rodents” (Translational Psychiatry, 2024):

What was measured:
[1] = tested on: male mice; experiment: Conditioned place preference (rCPP, mCPP); assay type: in vivo, NMRI mice
Excerpt: (§1) Male and female Rcc Han Wistar rats (8–12 weeks old at arrival; Envigo, Horst, Netherlands) were used for the alcohol drinking and locomotor activity experiments as they drink alcohol to intoxicating levels. For in vivo microdialysis studies male Wistar rats (Charles River, Calco, Italy) were used as they display robust dopamine levels in NAc shell after alcohol injection. […] All rodents were allowed to habituate to the animal facility at least one week before they entered an experiment. During housing (20 °C with 50% humidity) the rodents had free access to water and standard chow (Teklad Rodent Diet; Envigo, Madison, WI, USA). These experiments were approved by the Ethics Committee for Animal Experiments (ethical numbers: 1457/18, 3276/18, 1556/18, 3348/20; Gothenburg, Sweden) and followed the ARRIVE guidelines. The sample sizes of each experiment were based on previous experience in which statistical significance has been detected. The person who conducted the experiments, and analyzed the collected data was aware of the treatment allocation. Only preset exclusion criteria were used when analyzing the data obtained in attempts to exclude confounding factors in analyzing data. In the alcohol drinking experiments leaking bottles and low alcohol consumption (<3.0 g/kg for males; <3.5 g/kg for females) were preset exclusion criteria. The preset exclusion criterion in the ex vivo HPLC-EC, ELISA, and recombinant cell line experiments was contamination of the sample. Misplaced probes, technical difficulties, and damages to the surgery area were preset exclusion criteria for the in vivo microdialysis experiment. Intra-cage male aggression was the preset exclusion criterion for the locomotor activity and CPP experiments. To minimize tentative confounding factors, the order of treatments was stratified, with treatments being mixed for each animal cage and for each apparatus used as well as balancing the alcohol intake between future treatment groups. Although each experiment only was performed once, they were separated over different laboratory days with equal data obtained between sessions.
Alcohol (95%; Solveco AB, Stockholm, Sweden) was either diluted to a 20% solution using tap water (drinking experiment) or to a 15% (w/v) solution with 0.9% NaCl. Alcohol was in the behavioral and neurochemical tests injected (intraperitoneally, IP) 5 min before the test. A dose of 1.75 g/kg was used in male mice as it causes robust locomotor stimulation and induces a CPP [37–39], and 2 g/kg was used for rats as it elevates the dopamine levels in NAc shell. DAG (Tocrise Bioscience, Bristol, UK) was dissolved in 0.9% NaCl in doses (0.25–2 mg/kg) known to reduce food intake and DAG was injected IP). […]

[2] = tested on: 5HT2A receptor; experiment: Aquoscreen receptor activity assay, 5HT2A; assay type: cell-based, human; conditions: 50 µM DAG in results (8.3 µM in methods); luminescence, triplicates
[3] = tested on: NET; experiment: Transporter inhibition in recombinant cell line, NET; assay type: cell-based, human; conditions: 8.3 µM DAG; recombinant cells, 3 h incubation, fluorescence dye
[4] = tested on: male and female rats; experiment: Intermittent-access alcohol drinking, repeated DAG injections; assay type: in vivo, Rcc Han Wistar rats; conditions: for 4-h alcohol intake, overall / 24-h alcohol intake, overall: repeated DAG 1 mg/kg IP at three drinking sessions
Excerpt: as §1
Alcohol (95%; Solveco AB, Stockholm, Sweden) was either diluted to a 20% solution using tap water (drinking experiment) or to a 15% (w/v) solution with 0.9% NaCl. Alcohol was in the behavioral and neurochemical tests injected (intraperitoneally, IP) 5 min before the test. A dose of 1.75 g/kg was used in male mice as it causes robust locomotor stimulation and induces a CPP [37–39], and 2 g/kg was used for rats as it elevates the dopamine levels in NAc shell. DAG (Tocrise Bioscience, Bristol, UK) was dissolved in 0.9% NaCl in doses (0.25–2 mg/kg) known to reduce food intake and DAG was injected IP).
Individually housed rats had intermittent access to an alcohol (20%) bottle and a water bottle, three 24-h sessions per week, and only water bottles the remaining days. A reversed light/dark cycle was used, and the bottles were changed when the lights went out. First, the rats consumed alcohol for 10 weeks (baseline drinking), where the bottles and food were weighed daily and the body weight weekly. During treatments, the bottles and food were weighed at 4- and/or 24-h and the body weight was measured daily. In the first drinking experiment, the potential of DAG to reduce alcohol consumption was tested and therefore, vehicle or DAG (1 mg/kg) was acutely injected into male (n = 12) or female (n = 12) rats. The second drinking experiment was conducted to establish the effects of lower DAG doses on alcohol intake. Therefore, separate male (n = 18) or female (n = 18) rats, were acutely injected with lower DAG doses (0.5 or 0.25 mg/kg) or vehicle. The third alcohol drinking experiment evaluated the ability of repeated DAG injections to lower alcohol drinking. Therefore, additional male (n = 24) and female (n = 24) rats were injected with either vehicle or DAG (1 mg/kg) at three alcohol-drinking sessions. […]

[5] = tested on: CB1 receptor; experiment: Aquoscreen receptor activity assay, CB1; assay type: cell-based, human; conditions: 50 µM DAG in results (8.3 µM in methods); luminescence, triplicates
[6] = tested on: human transporter of dopamine (DAT); experiment: Transporter inhibition in recombinant cell line (neurotransmitter transporter uptake assay), DAT; assay type: cell-based; conditions: 8.3 µM DAG; CHO-K1 cells, 3 h incubation, fluorescence dye
[7] = cited from earlier work
Excerpt: Although DAG altered the neurotransmission of the VTA, the neuronal activi ... || Although DAG reduced alcohol consumption in rats of both sexes, some sex differences were evident. Specifically, after acute DAG treatment the decline in alcohol consumption was evident at the 24-h time point for males and the 4-h time point for females. Moreover, after repeated DAG treatment the decline was similar at each treatment session for males whereas it escalates over time in females.

[8] = female rats, repeated DAG 1 mg/kg IP
[9] = female rats, n = 7 vs vehicle n = 9
[10] = female rats, repeated DAG 1 mg/kg IP, drinking session 2, n = 7 vs vehicle n = 9
[11] = female rats, repeated DAG 1 mg/kg IP, n = 7 vs vehicle n = 9
[12] = male rats, repeated DAG 1 mg/kg IP
[13] = male rats, n = 8 vs vehicle n = 8

des-acyl ghrelin (GSSFLSPEHQRVQQRKESKKPPAKLQPR; Ghrelin-28 non-acylated; UniProt Q9UBU3 24-51, looked up) [DAG, non-octanoylated form of ghrelin; purchased from Tocris (printed Tocrise Bioscience), dissolved in 0.9% NaCl]
memory of alcohol reward (mCPP) ([1]; DAG 1 mg/kg at post-conditioning): did not reduce the memory of alcohol reward (mCPP, t14 = 1.36, P = 0.1955)
reward of alcohol in conditioned place preference (rCPP) ([1]; DAG 1 mg/kg during conditioning with alcohol): attenuated the reward of alcohol in the conditioned place preference test (rCPP, t12 = 2.69, P = 0.0197)
rCPP per se ([1]; DAG 1 mg/kg, only vehicle control instead of alcohol): did not influence rCPP (t14 = 0.64, P = 0.5304) per se
mCPP per se ([1]; DAG 1 mg/kg, vehicle during conditioning): DAG did neither influence locomotor activity, rCPP, mCPP nor accumbal dopamine per se
activation of 5HT2A [2]: no activation
inhibition of NET [3]: no inhibition
alcohol preference [4, 8]: remained unaltered by repeated injections of DAG
body weight [4, 8]: not affected by repeated DAG treatment
total fluid intake [4, 8]: remained unaltered by repeated injections of DAG
water intake [4, 8]: remained unaltered by repeated injections of DAG
4-h alcohol intake, overall [4, 9]: overall reduced the alcohol consumption at the 4-h time point (treatment F1,14 = 9.17, P = 0.0090 **; time F2,28 = 12.63, P = 0.0001; interaction F2,28 = 1.02, P = 0.3754)
24-h alcohol intake, overall [4, 9]: An overall decline in 24-h alcohol intake was observed (treatment F1,14 = 14.72, P = 0.0018 **; time F2,28 = 2.91, P = 0.0711; interaction F2,28 = 6.43, P = 0.0051 ##)
4-h alcohol intake, session 2 [4, 10]: a decrease specifically evident at alcohol drinking session 2 (P = 0.0158)
4-h food intake, session 2 [4, 10]: The lowered food intake by DAG was found at alcohol drinking session 2 (P = 0.0475)
4-h food intake, overall [4, 11]: A lowered food intake by repeated DAG injections was observed at the 4-h (treatment F1,14 = 4.80, P = 0.0460 *; time F2,28 = 4.79, P < 0.0001; interaction F2,28 = 0.57, P = 0.5742)
24-h food intake [4, 11]: not at the 24-h time point (treatment F1,14 = 0.53, P = 0.4798; time F2,28 = 1.68, P = 0.2049; interaction F2,28 = 0.19, P = 0.8269)
body weight [4, 12]: unchanged after repeated DAG injections
preference for alcohol [4, 12]: unchanged after repeated DAG injections
water intake [4, 12]: unchanged after repeated DAG injections
4-h alcohol intake, overall [4, 13]: overall decrease in alcohol intake at the A 4-h time point (treatment F1,14 = 5.12, P = 0.0401 *; time F2,28 = 1.87, P = 0.1754; interaction F2,28 = 0.59, P = 0.5622)
24-h alcohol intake, overall [4, 13]: An overall reduction in alcohol intake was observed after DAG injections (treatment F1,14 = 1.96, P = 0.1836; time F2,28 = 3.44, P = 0.0460; interaction F2,28 = 4.34, P = 0.0228 #)
total fluid intake, 24-h ([4]; male rats, repeated DAG 1 mg/kg IP, 24 h): overall decline in the total fluid intake at the 24-h time point (P = 0.0304)
24-h alcohol intake, session 2 ([4]; male rats, repeated DAG 1 mg/kg IP, drinking session 2, n = 8 per group): specifically at alcohol drinking session 2 (P = 0.0324)
4-h alcohol intake, session 3 ([4]; male rats, repeated DAG 1 mg/kg IP, drinking session 3, n = 8 per group): specifically lower after DAG at alcohol drinking session 3 (P = 0.0256)
4-h food intake ([4]; male rats, repeated DAG 1 mg/kg IP, n = 8 per group (4-h statistics)): did not alter the food intake at any time point (4-h: treatment F1,14 = 1.41, P = 0.2546; time F2,28 = 6.86, P = 0.0045; interaction F2,28 = 0.05, P = 0.9518
24-h food intake ([4]; male rats, repeated DAG 1 mg/kg IP, n = 8 per group (24-h statistics)): 24-h: treatment F1,14 = 0.55, P = 0.4727; time F2,28 = 13.79, P < 0.0001; interaction F2,28 = 1.03, P = 0.3707
activation of CB1 [5]: no activation
inhibition of DAT [6]: no inhibition
elimination pathway ([7]; ref [63], [64]): renal clearance has been suggested to be a major pathway for the elimination of DAG
brain entry ([7]; systemic DAG, ref [52]): enters the brain through non-saturable transmembrane diffusion
